The test system of experiment [1] is mTOR pathway activation (S6 phosphorylation). In words: S6 phosphorylation (mTOR pathway activation) in neurofibromin 1 deficient astrocytes, phospho-specific antibodies. The class given is cell-based, mouse. Conditions: Nf1-/- astrocytes; concentration not given. The source says: Evidence exists for direct activation of mTOR signaling by Akt as well as indirect activation of mTOR by Akt through the tuberous sclerosis complex (TSC)/Rheb pathway. Studies have shown that the mTOR activation resulting from neurofibromin loss in astrocytes can be reversed by restoring NF1-GAP activity (NF1 GRD), blocking K-RAS activity (K-RASN17), or inhibiting PI-3K activation of Akt.

The next experiment deals with S6 activation. Briefly: S6 activation in Tsc1-deficient astrocytes. The class given is cell-based. The source says: FIG. 8 depicts images showing that Rheb pharmacologic inhibition blocks mTOR pathway activation in Tsc1-deficient, but not neurofibromin 1 deficient, astrocytes.
In each case, the abnormal Tsc1^−/− and neurofibromin 1^−/− astrocyte phenotypes were reversed by mTOR inhibition (rapamycin treatment). […] These studies provide preliminary evidence for a TSC/Rheb-independent mechanism.

Each structure is given as a SMILES string. Entries after “also recorded” stand apart in the source; their conditions may differ.

Take `CSCC[C@H](NC(=O)c1ccc(NC[C@@H](N)CS)cc1-c1ccccc1)C(=O)O` [FTI-276]: the “S6 activation / phosphorylation (mTOR pathway activation)” value in experiment [1] is on record as “did not reduce S6 hyperactivation; also recorded: no effect on S6 activity”. In addition, the S6 activation entry in the experiment on S6 activation is reported as “effectively blocks S6 activation; also recorded: reduced S6 activation”.

For the origin of these results see patent publication US8101606B2, “Neurofibromin pathway modulators” (Washington University, priority 2007, dated 2012).
